From patent US6479531B1, “Gastrin and cholecystokinin receptor ligands” (James Black Foundation Limited, priority 1998, dated 2002)

Assays:
gastrin receptor = biological target: T1, gastrin receptor (Rattus norvegicus, UniProt P30553); assay: gastrin antagonist activity in immature rat stomach assay (pentagastrin dose-response, acid secretion); details: isolated immature rat stomach, cumulative pentagastrin dose-response curves, read-out: Gastrin pKb (converted)
T1 construct: The stomach was excised and flushed with ca. 1 ml of unbuffered physiological saline solution; from tissue; host or cells: isolated whole stomach of immature rats (ca. 21 days old)
T1 sequence (P30553 1-452): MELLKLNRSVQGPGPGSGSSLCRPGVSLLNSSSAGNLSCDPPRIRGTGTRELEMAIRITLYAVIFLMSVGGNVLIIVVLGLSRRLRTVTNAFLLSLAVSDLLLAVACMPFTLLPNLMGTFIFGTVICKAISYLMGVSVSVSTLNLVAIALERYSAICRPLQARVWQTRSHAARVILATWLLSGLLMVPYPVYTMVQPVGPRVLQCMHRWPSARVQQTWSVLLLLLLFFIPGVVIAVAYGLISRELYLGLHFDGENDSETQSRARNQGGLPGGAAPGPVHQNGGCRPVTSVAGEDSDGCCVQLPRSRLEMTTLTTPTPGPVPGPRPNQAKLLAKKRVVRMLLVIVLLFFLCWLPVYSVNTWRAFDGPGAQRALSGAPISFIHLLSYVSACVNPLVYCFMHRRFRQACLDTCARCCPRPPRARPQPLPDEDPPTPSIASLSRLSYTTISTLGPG
Summary of the method: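 Gastrin antagonism was measured as the effect on cumulative pentagastrin dose-response curves of acid output, recorded by pH electrode in the perfusate of an excised immature rat stomach (ca. 21 days old). Test compound was placed in the serosal bath (37°, 3×10^−8 M 5-methylfurmethide) 60 min before pentagastrin.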

CCKA receptor = biological target: T2, CCKA receptor (Cavia porcellus, UniProt Q63931); assay: CCKA binding assay in guinea-pig pancreas membranes; details: [125I]-CCK8(S) 200 pM, with 0.375 μM PD134,308, read-out: CCKA pKi (converted)
T2 construct: The pancreatata were removed from male guineau-pigs (200-300 g; Dunkin Hartley); from tissue; host or cells: pancreas membranes of male Dunkin Hartley guinea-pigs
T2 sequence (Q63931 1-430): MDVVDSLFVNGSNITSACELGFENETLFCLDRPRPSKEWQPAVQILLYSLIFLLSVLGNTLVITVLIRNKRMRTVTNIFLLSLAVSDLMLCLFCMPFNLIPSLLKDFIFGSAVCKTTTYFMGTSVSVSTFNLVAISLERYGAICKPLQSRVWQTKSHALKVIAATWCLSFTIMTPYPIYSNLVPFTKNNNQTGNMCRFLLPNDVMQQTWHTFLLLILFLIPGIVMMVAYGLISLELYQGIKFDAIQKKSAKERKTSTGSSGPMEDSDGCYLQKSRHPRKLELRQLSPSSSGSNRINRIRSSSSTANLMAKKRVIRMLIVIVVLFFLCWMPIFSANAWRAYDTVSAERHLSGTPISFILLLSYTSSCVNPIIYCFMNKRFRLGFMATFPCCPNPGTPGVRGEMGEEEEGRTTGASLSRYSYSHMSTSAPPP
Description: The compounds of certain examples were also tested in a CCKA binding assay as follows:
The pancreatata were removed from male guineau-pigs (200-300 g; Dunkin Hartley) and placed in ice-cold HEPES buffer (pH 7.2 @ 21±3° C.). The pancreatata were homogenised in 40 ml ice-cold HEPES buffer using a polytron (Brinkmann, PT10, setting 10) 4×1 second. The homogenate was centrifuged at 39,800 g for 15 min at 4° C. The supernatant was discarded and the pellet re-suspended using a Teflon-in-glass homogeniser in 20 volumes of fresh buffer and re-centrifuged as above. The final pellet was re-suspended using a Teflon-in-glass homogeniser to a tissue concentration of 1 mg.ml^−1 (original weight), and filtered through a 500 μm pore-size Nytex mesh.
The membranes (400 μl; containing 0.375 μM PD134,308) were incubated for 150 minutes at 21±3° C. in a final volume of 0.5 ml with HEPES buffer containing [^125I]-CCK8 (S) (50 μl; 200 pM) and competing compound. Total and non-specific binding of [^125I]-CCK8 (S) were defined using 50 μl of buffer and 50 μ of 100 nM L-364,718 respectively. The assay was terminated by rapid filtration through pre-soaked Whatman GF/B filters using a Brandell Cell Harvetser. The filters were washed (3×3 ml) with ice-cold 50 mM Tris HCl (pH 7.4 @ 4° C.) and bound radioactivity was determined by counting (1 min) in a gamma counter.

CCKB receptor = biological target: T3, CCKB receptor (Mus musculus, UniProt P56481); assay: CCKB receptor radioligand binding assay in mouse cortical membranes; details: [125I]-CCK8(S) 200 pM, 150 min at 21±3°, read-out: CCKB pKi (converted)
T3 construct: The whole brains from male mice (CD1 22-25 g; Charles River) were removed; from tissue; host or cells: cerebral cortex membranes of male CD1 mice
T3 sequence (P56481 1-453): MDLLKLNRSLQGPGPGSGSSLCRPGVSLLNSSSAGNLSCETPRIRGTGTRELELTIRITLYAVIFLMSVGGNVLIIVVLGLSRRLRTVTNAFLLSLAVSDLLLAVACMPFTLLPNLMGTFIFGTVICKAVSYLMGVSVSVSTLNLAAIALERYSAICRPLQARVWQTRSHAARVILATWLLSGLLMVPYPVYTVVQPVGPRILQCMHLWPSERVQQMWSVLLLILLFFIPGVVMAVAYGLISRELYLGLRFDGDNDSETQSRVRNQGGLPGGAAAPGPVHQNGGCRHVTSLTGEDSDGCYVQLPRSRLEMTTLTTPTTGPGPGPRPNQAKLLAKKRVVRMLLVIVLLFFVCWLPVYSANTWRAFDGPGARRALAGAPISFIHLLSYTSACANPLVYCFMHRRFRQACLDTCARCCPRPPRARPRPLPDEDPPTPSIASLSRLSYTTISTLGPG
Summary of the method: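 Bound radioactivity was gamma-counted after rapid GF/B filtration and cold 50 mM Tris-HCl (pH 7.4) washes. The tissue was cerebral cortex from male CD1 mice, prepared as twice-centrifuged membranes in pH 7.2 HEPES/NaCl/KCl/MgCl2/EDTA buffer with bacitracin at 20 mg/ml original wet weight.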

| SMILES | Kb (gastrin receptor) | Ki (CCKA receptor) | Ki (CCKB receptor) |
| --- | --- | --- | --- |
| O=C(O)c1cccc(NC(=O)c2nc(C34CCC(CC3)CC4)[nH]c2COC23CC4CC(CC(C4)C2)C3)c1 [Example 221, 3-{[5-(Adamantan-1-yloxymethyl)-2-bicyclo[2.2.2]oct-1-yl-1H-imidazole-4-carbonyl]-amino}-benzoic Acid] | 0.708 nM | 794 nM | – |
| O=C(O)Cc1cccc(NC(=O)c2nc(C3CCCCC3)[nH]c2COC23CC4CC(CC(C4)C2)C3)c1 [Example 219, (3-{[5-(Adamantan-1-yloxymethyl)-2-cyclohexyl-1H-imidazole-4-carbonyl]-amino}-phenyl)-acetic Acid] | 69.2 nM | 501 nM | – |
| O=C(O)c1cccc(NC(=O)c2nc([C@@H]3CC4C=C[C@H]3C4)[nH]c2COC23CC4CC(CC(C4)C2)C3)c1 [Example 236] | 1.05 nM | 794 nM | – |
| O=C(O)c1cccc(NC(=O)c2nc([C@H]3CC4C=C[C@@H]3C4)[nH]c2COC23CC4CC(CC(C4)C2)C3)c1 [Example 235, endo-3-{[5-(Adamantan-1-yloxymethyl)-2-((1S,2S)-bicyclo[2.2.1]hept-5-en-2-yl)-1H-imidazole-4-carbonyl]-amino}-benzoic Acid] | 3.02 nM | 2510 nM | – |
| O=C(O)Cc1cccc(NC(=O)c2nc(C34CCC(CC3)CC4)[nH]c2COC23CC4CC(CC(C4)C2)C3)c1 [Example 224, (3-{[5-(Adamantan-1-yloxymethyl)-2-bicyclo[2.2.2]oct-1-yl-1H-imidazole-4-carbonyl]-amino}-phenyl)-acetic Acid] | 18.2 nM | 631 nM | – |
| Cc1ccc(NC(=O)c2nc(C3CCCCC3)[nH]c2COC23CC4CC(CC(C4)C2)C3)cc1C(=O)O [Example 217, 5-{[5-(Adamantan-1-yloxymethyl)-2-cyclohexyl-1H-imidazole-4-carbonyl]-amino}-2-methyl-benzoic Acid] | 3.98 nM | – | 3.98 nM |
| CC(C)c1nc(C(=O)Nc2cccc(C(=O)O)c2)c(CCC23CC4CC(CC(C4)C2)C3)[nH]1 [Example 78, 3-{[5-(2-Adamantan-1-yl-ethyl)-2-isopropyl-1H-imidazole-4-carbonyl]-amino}-benzoic Acid] | 20.9 nM | – | 186 nM |
| CC1(c2nc(C(=O)Nc3cccc(C(=O)O)c3)c(CCC34CC5CC(CC(C5)C3)C4)[nH]2)CCCCC1 [Example 199, 3-{[5-(2-Adamantan-1-yl-ethyl)-2-(1-methyl-cyclohexyl)-1H-imidazole-4-carbonyl]-amino}-benzoic Acid] | 1.62 nM | – | 17.8 nM |
| O=C(O)c1cccc(NC(=O)c2nc(-c3cccc(F)c3)[nH]c2CCC23CC4CC(CC(C4)C2)C3)c1 [Example 55, 3-{[5-(2-Adamantan-1-yl-ethyl)-2-(3-fluoro-phenyl)-1H-imidazole-4-carbonyl]-amino}-benzoic Acid] | 229 nM | – | 646 nM |
| Cc1ccccc1-c1nc(NC(=O)Nc2cccc(C(=O)O)c2)c(CCC23CC4CC(CC(C4)C2)C3)[nH]1 [Example 75, 3-{3-[5-(2-Adamantan-1-yl-ethyl)-2-o-tolyl-1H-imidazol-4-yl]-ureido}-benzoic Acid] | 263 nM | – | 200 nM |
| O=C(O)c1cccc(NC(=O)c2nc(-c3cccnc3)[nH]c2CCC23CC4CC(CC(C4)C2)C3)c1 [Example 177, 3-{[5-(2-Adamantan-1-yl-ethyl)-2-pyridine-3-yl-1H-imidazole-4-carbonyl]-amino}-benzoic Acid] | 151 nM | – | 603 nM |
| Cc1ccc(C)c(-c2nc(C(=O)Nc3cccc(C(=O)O)c3)c(CCC34CC5CC(CC(C5)C3)C4)[nH]2)c1 [Example 66, 3-{[5-(2-Adamantan-1-yl-ethyl)-2-(2,5-dimethyl-phenyl)-1H-imidazole-4-carbonyl]-amino}-benzoic Acid] | 55 nM | – | 200 nM |
| CC1(C)C2CC[C@]1(C)C(c1nc(C(=O)Nc3cccc(C(=O)O)c3)c(CCC34CC5CC(CC(C5)C3)C4)[nH]1)C2 (mixture of isomers) [Example 205, 3-{[5-(2-Adamantan-1-yl-ethyl)-2-[(1R,2RS)-1,7,7-trimethyl-bicyclo[2.2.1]hept-2-yl]-1H-imidazole-4-carbonyl]-amino}-benzoic Acid] | 8.32 nM | – | 47.9 nM |
| CC1(CCc2[nH]c(C3CCCCC3)nc2C(=O)Nc2cccc(C(=O)O)c2)CCCCC1 [Example 133, 3-({2-Cyclohexyl-5-[2-(1-methyl-cyclohexyl)-ethyl]-1H-imidazole-4-carbonyl}-amino)-benzoic Acid] | 12 nM | – | 141 nM |
| O=C(O)c1cccc(NC(=O)c2nc(-c3ccccc3F)[nH]c2CCC2CCCCCC2)c1 [Example 43, 3-{[5-(2-Cycloheptyl-ethyl)-2-(2-fluoro-phenyl)-1H-imidazole-4-carbonyl]-amino}-benzoic Acid] | 63.1 nM | – | 851 nM |
| Cc1ccccc1-c1nc(C(=O)Nc2ccc(F)c(C(=O)O)c2)c(CCC23CC4CC(CC(C4)C2)C3)[nH]1 [Example 105, 5-{[5-(2-Adamantan-1-yl-ethyl)-2-o-tolyl-1H-imidazole-4-carbonyl]-amino}-2-fluoro-benzoic Acid] | 87.1 nM | – | 46.8 nM |
| Cc1ccccc1-c1nc(C(=O)Nc2cccc(C(=O)O)c2)c(CCc2ccccc2)[nH]1 [Example 87, 3-[(5-Phenethyl-2-o-tolyl-1H-imidazole-4-carbonyl)-amino]-benzoic Acid] | 1170 nM | – | 2690 nM |
| CCCCC(CC)c1nc(C(=O)Nc2cccc(C(=O)O)c2)c(CCC23CC4CC(CC(C4)C2)C3)[nH]1 (centres unmarked) [Example 124, 3-{[5-(2-Adamantan-1-yl-ethyl)-2-(1-ethyl-pentyl)-1H-imidazole-4-carbonyl]-amino}-benzoic Acid] | 15.5 nM | – | 63.1 nM |
| Cc1ccccc1-c1nc(C(=O)Nc2cccc(C(=O)O)c2)c(CC2CCCCCC2)[nH]1 [Example 165, 3-[(5-Cycloheptylmethyl-2-o-tolyl-1H-imidazole-4-carbonyl)-amino]-benzoic Acid] | 123 nM | – | 1820 nM |
